The source of these data is US11440907B1 (Merck Patent GmbH, priority 2018, dated 2022).

Common to all, as to type: cell-based
Test [1] concerns intracellular calcium flux in Colo-205 cells. Briefly: Calcium flux assay (FLIPR Calcium 5 Assay Kit, FLIPR3). Particulars: Homo sapiens, 0.6 h, calcium flux measured over 36 minutes, read-out: Colo 205 Calcium Flux assay 384w Boston Ca assay FLIPR3 Colo EC50. How it is done:
Compounds described herein induced ER stress by causing intracellular calcium flux. Calcium flux was measured in Colo-205 cells using the FLIPR® Calcium 5 Assay Kit according to manufacturer's protocol (Molecular Devices, Cat. #R8186) on a FLIPR3 system (Molecular Devices). Calcium flux is measured over 36 minutes. The Colo-205 calcium flux assay data are summarized in Table 3: A<0.6 μM; 0.6 μM≤B<2.0 μM; 2.0 μM≤C<10.0 μM; D≥10.0 μM.

Test [2] relates to β-catenin-TCF-mediated reporter transcription activity in Colo 205 cells. Briefly: Colo 205 reporter assay (TCF/LEF promoter-driven firefly luciferase). The conditions noted are these: Homo sapiens; Colo 205 TCF/LEF luciferase reporter, 5 hours after compound addition, 384 well; read-out: Colo205 IC50. (In general: A reporter such as luciferase makes a cellular process visible.)

Test [3] has as its system NCI-H929 (Multiple myeloma cells). Briefly: Cell viability (ATPLite) in NCI-H929. The conditions noted are these: Homo sapiens, 96 hours. As for the experimental part: Cells were removed from liquid nitrogen storage, thawed and expanded in appropriate growth media. Once expanded, cells were seeded in 384-well tissue culture treated plates at 500 cells per well. After 24 hours, cells were treated for either 0 hours or treated for 96 hours with a testing compound (at the concentrations of 100 nM and 2 uM). At the end of either 0 hours or 96 hours, cell status was analyzed using ATPLite (Perkin Elmer) to assess the biological response of cells to the testing compound.
A general note: In ATP-based viability assays light output follows the ATP content of the culture.

Test [4] has as its system XBP1(u)-luciferase splicing reporter in HepG2 hepatoma cells. Briefly: HepG2 XBP1 reporter assay (XBP1(u)-Luc). The conditions noted are these: Homo sapiens, 6 h, six hours after addition of compound.

Structures are written as SMILES.

As a reminder, the EC50 is the concentration that produces a half-maximal response. By IC50 is commonly meant the point on the concentration scale where inhibition reaches its midpoint. For `Cc1cc(N2CCCCCC2c2ccc(S(C)(=O)=O)cc2C)nc(N)n1` (racemic) [I-37, (+/−)-4-methyl-6-(2-(2-methyl-4-(methylsulfonyl)phenyl)azepan-1-yl)pyrimidin-2-amine], the EC50 in test [1] is < 600 nM. Further, the IC50 in test [2] fell in the range of 300 to 1000 nM.
The corresponding values for `Cc1cc(N2CCCOCC2c2c(F)cccc2Cl)nc(N)n1` (racemic) [I-59, (+/−)-4-(3-(2-chloro-6-fluorophenyl)-1,4-oxazepan-4-yl)-6-methylpyrimidin-2-amine] are < 600 nM and 300 to 1000 nM.
The corresponding values for `Cc1cc(N2CCCOCC2c2cc(F)ccc2Cl)nc(N)n1` (racemic) [I-70, (+/−)-4-[3-(2-chloro-5-fluoro-phenyl)-1,4-oxazepan-4-yl]-6-methyl-pyrimidin-2-amine] are < 600 nM and 300 to 1000 nM.
Turning to `Cc1cc(N2CCCOCC2c2cc(N)ccc2Cl)nc(N)n1` (racemic) [I-71, (+/−)-4-(3-(5-amino-2-chlorophenyl)-1,4-oxazepan-4-yl)-6-methylpyrimidin-2-amine], the EC50 in test [1] is < 600 nM. Besides, in test [2], the 50% inhibitory concentration (IC50) was < 300 nM.
The corresponding values for `Cc1cc(N2CCCOCC2c2cc(NS(C)(=O)=O)ccc2Cl)nc(N)n1` (racemic) [I-74, (+/−)-N-(3-(4-(2-amino-6-methylpyrimidin-4-yl)-1,4-oxazepan-3-yl)-4-chlorophenyl)methanesulfonamide] are < 600 nM and < 300 nM.
The corresponding values for `CNC(=O)c1ccc(OC)c(C2COCCCN2c2cc(C)nc(N)n2)c1` (racemic) [I-82, (+/−)-3-(4-(2-amino-6-methylpyrimidin-4-yl)-1,4-oxazepan-3-yl)-4-methoxy-N-methylbenzamide] are 600 to 2000 nM and 300 to 1000 nM.
The corresponding values for `Cc1cc(N2CCCOC[C@@H]2c2ccc(F)cc2F)nc(N)n1` (single isomer, unassigned) [I-62] are < 600 nM and 300 to 1000 nM.
As to `Cc1cc(N2CCCOC[C@@H]2c2cc(F)ccc2Cl)nc(N)n1` (single isomer, unassigned) [I-79], in test [1], the EC50 is < 600 nM. Moreover, the IC50 in test [2] was < 300 nM.
Taken in the same sequence, the figures for `Cc1cc(N2CCCOC[C@@H]2c2cc(O)ccc2Cl)nc(N)n1` (single isomer, unassigned) [I-170] were < 600 nM and < 300 nM.
Take `Cc1cc(N2CCCOCC2c2cc(CN)c(C)cc2Cl)nc(N)n1` [D-46]: the IC50 in test [3] was < 1000 nM; in test [4], < 600 nM.
As for `Cc1cc(N2CCCOCC2c2cnc(CS(C)(=O)=O)cc2Cl)nc(N)n1` [D-49], the IC50 in test [3] is < 1000 nM; in test [4], < 600 nM.
With `Cc1cc(N2CCCOCC2c2cc(O)c(OC(F)F)cc2Cl)nc(N)n1` [D-50], the IC50 in test [3] was < 1000 nM; in test [4], < 600 nM.
`COc1ccc(C2COCCCN2c2cc(C)nc(N)n2)c(Cl)c1` [D-51]: the results for the IC50 in test [3] and in test [4] were < 1000 nM and < 600 nM, respectively.
Taken in the same sequence, the figures for `CCc1cc(N2CCCOCC2c2ccc(CS(C)(=O)=O)cc2Cl)nc(N)n1` [D-52] were < 1000 nM and < 600 nM.
Taken in the same sequence, the figures for `Cc1cc(N2CCCOCC2c2ccc(CS(C)(=O)=O)nc2OC(F)F)nc(N)n1` [D-54] were 1000 to 10000 nM and < 600 nM.
The corresponding values for `Cc1cc(N2CCCOCC2c2ccc(CS(C)(=O)=O)cc2Cl)nc(N)n1` [D-55] are < 1000 nM and < 600 nM.
On to `Cc1cc(N2CCCOC[C@H]2c2cc(O)c(OC(F)F)cc2Cl)nc(N)n1` [D-56], for which the IC50 is 10000 to 25000 nM in test [3] and ≥ 5000 nM in test [4].
The corresponding values for `Cc1cc(N2CCCOC[C@@H]2c2cc(O)c(OC(F)F)cc2Cl)nc(N)n1` [D-57] are < 1000 nM and < 600 nM.
As for `Cc1cc(N2CCCOC[C@H]2c2ccc(NC(=O)C3(F)CCOC3)cc2Cl)nc(N)n1` (stereo partly drawn) [D-58], the IC50 is < 1000 nM in test [3] and < 600 nM in test [4].
Take `CCc1cc(N2CCCOC[C@@H]2c2ccc(CS(C)(=O)=O)cc2Cl)nc(N)n1` [D-59]: the IC50 in test [3] is < 1000 nM; in test [4] it was < 600 nM.
For `C#CCOc1cc(Cl)c(C2COCCCN2c2cc(C)nc(N)n2)cc1OC` [D-60], the IC50 is 1000 to 10000 nM in test [3] and < 600 nM in test [4].
Taken in the same sequence, the figures for `Cc1cc(N2CCCOCC2c2ccc(C3CCNCC3)cc2Cl)nc(N)n1` [D-61] were 1000 to 10000 nM and < 600 nM.
The corresponding values for `Cc1cc(N2CCCOC[C@H]2c2cc(N3CC[C@H](O)C3)ccc2Cl)nc(N)n1` [D-63] are < 1000 nM and < 600 nM.
Take `Cc1cc(N2CCCOC[C@@H]2c2cc(N3CC[C@H](O)C3)ccc2Cl)nc(N)n1` [D-64]: the IC50 in test [3] lay in the range of 1000 to 10000 nM; in test [4], 600 to 2000 nM.
`Cc1cc(N2CCCOCC2c2cc(O)c(CS(C)(=O)=O)cc2Cl)nc(N)n1` [D-65]: the figures for the IC50 in test [3] and in test [4] were < 1000 nM and < 600 nM, respectively.
As for `Cc1cc(N2CCCOC[C@H]2c2ccc(C3CCNCC3)cc2Cl)nc(N)n1` [D-68], the IC50 is < 1000 nM in test [3] and < 600 nM in test [4].
`CCc1cc(N2CCCOCC2c2cc(O)c(OC)cc2Cl)nc(N)n1` [D-71]: the concentration for half-maximal inhibition (IC50) is < 1000 nM in test [3] and < 600 nM in test [4].
Taken in the same sequence, the figures for `COc1ccc([C@H]2COCCCN2c2cc(C)nc(N)n2)c(Cl)c1` [D-80] were < 1000 nM and < 600 nM.
Turning to `Cc1cc(N2CCCOC[C@@H]2c2ncc(CS(C)(=O)=O)cc2Cl)nc(N)n1` [D-81], the IC50 in test [3] was < 1000 nM; in test [4] it was < 600 nM.
The corresponding values for `Cc1cc(N2CCCOC[C@@H]2c2cc(O)c(CS(C)(=O)=O)cc2Cl)nc(N)n1` [D-86] are < 1000 nM and < 600 nM.
In the case of `CCc1cc(N2CCCOC[C@@H]2c2cc(O)c(OC)cc2Cl)nc(N)n1` [D-104], the IC50 in test [3] was < 1000 nM; in test [4] it was < 600 nM.
In the case of `CCc1cc(N2CCCOCC2c2cc(O)c(NC(C)=O)cc2Cl)nc(N)n1` [D-110], the IC50 was < 1000 nM in test [3] and < 600 nM in test [4].
The corresponding values for `Cc1cc(N2CCCOCC2c2ccc(O)cc2C(F)(F)F)nc(N)n1` [D-111] are < 1000 nM and < 600 nM.
Taken in the same sequence, the figures for `CNC(=O)[C@]1(C)CNc2cc(Cl)c([C@H]3COCCCN3c3cc(C)nc(N)n3)cc2O1` [D-116] were < 1000 nM and < 600 nM.
Taken in the same sequence, the figures for `Cc1cc(N2CCCOC[C@@H]2c2cc(O)c(C(=O)N(C)C)cc2Cl)nc(N)n1` [D-117] were < 1000 nM and < 600 nM.
Regarding `Cc1cc(N2CCCOC[C@@H]2c2cc(O)c(OC(F)(F)F)cc2Cl)nc(N)n1` [D-119], the figures for the IC50 in test [3] and in test [4] were < 1000 nM and < 600 nM, respectively.
Take `Cc1cc(N2CCCOC[C@H]2c2ccc(S(=O)(=O)C3CCC3)cc2Cl)nc(N)n1` [D-141]: the values for the IC50 in test [3] and in test [4] were 1000 to 10000 nM and ≥ 5000 nM, respectively.
Turning to `Cc1cc(N2CCCOC[C@H]2c2ccc(NC(=O)C(F)F)cc2Cl)nc(N)n1` [D-142], the IC50 in test [3] was < 1000 nM; in test [4], ≥ 5000 nM.
In the case of `Cc1cc(N2CCCOC[C@H]2c2cc3c(cc2Cl)NCCC3)nc(N)n1` [D-143], the IC50 was ≥ 25000 nM in test [3] and ≥ 5000 nM in test [4].
The corresponding values for `Cc1cc(N2CCCOC[C@H]2c2cc3c(cc2Cl)N(C)CC3)nc(N)n1` [D-144] are ≥ 25000 nM and ≥ 5000 nM.
On to `Cc1cc(N2CCCOC[C@H]2c2cc(N)c(C(F)(F)F)cc2Cl)nc(N)n1` [D-145], for which the results for the IC50 in test [3] and in test [4] were ≥ 25000 nM and ≥ 5000 nM, respectively.
Consider `Cc1cc(N2CCCOCC2c2ccc(CS(C)(=O)=O)[nH]c2=O)nc(N)n1` [D-146], for which the IC50 in test [3] is ≥ 25000 nM; in test [4], ≥ 5000 nM.
With `Cc1cc(N2CCCOC[C@H]2c2ccc(CS(C)(=O)=O)cc2OC(F)F)nc(N)n1` [D-152], the IC50 was ≥ 25000 nM in test [3] and ≥ 5000 nM in test [4].
Consider `CCOc1cc([C@@H]2COCCCN2c2cc(C)nc(N)n2)c(Cl)cc1OC` [D-153], for which the IC50 in test [3] was ≥ 25000 nM; in test [4], ≥ 5000 nM.
Taken in the same sequence, the figures for `Cc1cc(N2CCCOC[C@H]2c2cc3c(cc2Cl)OCC(C)(C)CO3)nc(N)n1` [D-154] were ≥ 25000 nM and ≥ 5000 nM.
As for `CCOC(=O)[C@]1(C)CNc2cc(Cl)c([C@@H]3COCCCN3c3cc(C)nc(N)n3)cc2O1` [D-155], the IC50 in test [3] was ≥ 25000 nM; in test [4] it was ≥ 5000 nM.
Consider `CCOC(=O)[C@@]1(C)CNc2cc(Cl)c([C@@H]3COCCCN3c3cc(C)nc(N)n3)cc2O1` [D-157], for which the IC50 in test [3] is ≥ 25000 nM; in test [4], ≥ 5000 nM.
The corresponding values for `Cc1cc(N2CCCOC[C@H]2c2ccc(OS(C)(=O)=O)cc2OC(F)(F)F)nc(N)n1` [D-158] are ≥ 25000 nM and ≥ 5000 nM.
The corresponding values for `COc1cc([C@@H]2COCCCN2c2cc(C)nc(N)n2)c(Cl)cc1OCC#N` [D-159] are ≥ 25000 nM and ≥ 5000 nM.
On to `Cc1cc(N2CCCCC[C@@H]2c2ccc(F)cc2C2CC2)nc(N)n1` [I-47, (R)-4-(2-(2-cyclopropyl-4-fluorophenyl)azepan-1-yl)-6-methylpyrimidin-2-amine], for which the EC50 in test [1] lay within 600 to 2000 nM. For the same compound, the IC50 in test [2] is 300 to 1000 nM.
